Results as given in patent US10745377B2, “Piperidine or piperazine linked imidazole and triazole derivatives and methods of use” (MERCK SHARP & DOHME CORP., priority 2013, dated 2020).
Like-named read-outs stand apart in the source and are kept apart here.

Key:
Format in all cases: biochemical
CYP3A4 = target: T1, CYP3A4 (Homo sapiens, UniProt P08684); experiment: Cocktail assay for CYPs in human liver microsomes: CYP3A4 (midazolam 1′-hydroxylation); conditions: 2 μM midazolam, 10 min at 37° C., 6 concentrations up to 10 μM
T1 construct: 0.1 mg/mL protein human liver microsomes (BD Gentest); tissue BD Gentest; host or cells: human liver microsomes

CYP2C9 = target: T2, CYP2C9 (Homo sapiens, UniProt P11712); experiment: Cocktail assay for CYPs in human liver microsomes: CYP2C9 (diclofenac 4′-hydroxylation); conditions: 5 μM diclofenac, 10 min at 37° C., 6 concentrations up to 10 μM
T2 construct: 0.1 mg/mL protein human liver microsomes (BD Gentest); tissue BD Gentest; host or cells: human liver microsomes

CYP2C19 = target: T3, CYP2C19 (Homo sapiens, UniProt P33261); experiment: Cocktail assay for CYPs in human liver microsomes: CYP2C19 (mephenytoin 4′-hydroxylation); conditions: 30 μM mephenytoin, 10 min at 37° C., 6 concentrations up to 10 μM
T3 construct: 0.1 mg/mL protein human liver microsomes (BD Gentest); tissue BD Gentest; host or cells: human liver microsomes

CYP1A2 = target: T4, CYP1A2 (Homo sapiens, UniProt P05177); experiment: Cocktail assay for CYPs in human liver microsomes: CYP1A2 (phenacetin O-deethylation)
T4 construct: 0.1 mg/mL protein human liver microsomes (BD Gentest); tissue BD Gentest; host or cells: human liver microsomes
T4 sequence (P05177 1-516): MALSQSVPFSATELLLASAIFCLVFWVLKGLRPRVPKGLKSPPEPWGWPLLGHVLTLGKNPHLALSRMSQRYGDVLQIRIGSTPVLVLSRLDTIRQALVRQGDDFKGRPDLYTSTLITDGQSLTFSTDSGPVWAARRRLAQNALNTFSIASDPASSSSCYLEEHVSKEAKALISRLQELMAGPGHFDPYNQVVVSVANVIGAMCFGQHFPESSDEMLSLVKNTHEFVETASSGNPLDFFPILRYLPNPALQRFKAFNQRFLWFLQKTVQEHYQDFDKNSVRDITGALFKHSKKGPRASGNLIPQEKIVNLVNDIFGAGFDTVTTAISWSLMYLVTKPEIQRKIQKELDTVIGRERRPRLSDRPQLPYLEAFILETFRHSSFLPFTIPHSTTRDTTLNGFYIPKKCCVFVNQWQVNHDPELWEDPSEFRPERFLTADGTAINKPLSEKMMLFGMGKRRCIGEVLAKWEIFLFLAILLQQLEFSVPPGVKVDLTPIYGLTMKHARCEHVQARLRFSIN

CYP2D6 = target: T5, CYP2D6 (Homo sapiens, UniProt P10635); experiment: Cocktail assay for CYPs in human liver microsomes: CYP2D6 (dextromethorphan O-demethylation); conditions: 5 μM dextromethorphan, 10 min at 37° C., 6 concentrations up to 10 μM
T5 construct: 0.1 mg/mL protein human liver microsomes (BD Gentest); tissue BD Gentest; host or cells: human liver microsomes

[1] = human liver microsomes 0.1 mg/mL, read-out: IC50 (nM) CYP3A4
[2] = human liver microsomes 0.1 mg/mL, read-out: IC50 (nM) CYP2C9
[3] = human liver microsomes 0.1 mg/mL, read-out: IC50 (nM) CYP2C19
[4] = human liver microsomes 0.1 mg/mL, 10 μM phenacetin, 10 min at 37° C., 6 concentrations up to 10 μM, read-out: IC50 (nM) CYP1A2
[5] = human liver microsomes 0.1 mg/mL, read-out: IC50 (nM) CYP2D6
[6] = IC50 (nM) CYP3A4, human liver microsomes 0.1 mg/mL
[7] = IC50 (nM) CYP2C9, human liver microsomes 0.1 mg/mL
[8] = IC50 (nM) CYP2C19, human liver microsomes 0.1 mg/mL
[9] = IC50 (nM) CYP2D6, human liver microsomes 0.1 mg/mL

T2 sequence (P11712 whole entry): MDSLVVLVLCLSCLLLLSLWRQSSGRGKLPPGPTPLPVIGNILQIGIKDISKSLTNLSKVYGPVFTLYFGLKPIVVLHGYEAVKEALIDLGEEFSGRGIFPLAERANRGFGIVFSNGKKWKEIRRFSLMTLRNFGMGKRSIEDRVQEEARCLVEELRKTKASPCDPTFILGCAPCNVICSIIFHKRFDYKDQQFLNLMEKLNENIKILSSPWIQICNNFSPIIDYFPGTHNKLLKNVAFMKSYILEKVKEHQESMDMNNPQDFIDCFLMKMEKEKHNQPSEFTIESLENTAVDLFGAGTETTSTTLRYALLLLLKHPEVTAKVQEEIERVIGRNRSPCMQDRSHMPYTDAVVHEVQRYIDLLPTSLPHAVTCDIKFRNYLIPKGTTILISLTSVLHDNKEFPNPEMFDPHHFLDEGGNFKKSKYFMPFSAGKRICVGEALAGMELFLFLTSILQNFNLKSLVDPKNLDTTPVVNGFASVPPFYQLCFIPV
T1 sequence (P08684 whole entry): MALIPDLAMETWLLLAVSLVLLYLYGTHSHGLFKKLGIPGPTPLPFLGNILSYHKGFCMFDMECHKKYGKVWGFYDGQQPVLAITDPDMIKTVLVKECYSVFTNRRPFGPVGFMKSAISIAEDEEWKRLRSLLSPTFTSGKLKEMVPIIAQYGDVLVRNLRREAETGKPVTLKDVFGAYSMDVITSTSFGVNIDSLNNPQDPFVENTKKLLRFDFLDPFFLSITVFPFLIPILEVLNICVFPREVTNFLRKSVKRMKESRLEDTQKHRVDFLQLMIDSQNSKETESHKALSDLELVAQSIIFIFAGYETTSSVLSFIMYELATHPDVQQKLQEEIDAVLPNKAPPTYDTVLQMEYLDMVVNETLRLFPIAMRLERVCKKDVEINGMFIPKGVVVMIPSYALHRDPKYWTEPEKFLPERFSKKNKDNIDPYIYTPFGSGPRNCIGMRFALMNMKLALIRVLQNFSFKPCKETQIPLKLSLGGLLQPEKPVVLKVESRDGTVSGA
T5 sequence (P10635 whole entry): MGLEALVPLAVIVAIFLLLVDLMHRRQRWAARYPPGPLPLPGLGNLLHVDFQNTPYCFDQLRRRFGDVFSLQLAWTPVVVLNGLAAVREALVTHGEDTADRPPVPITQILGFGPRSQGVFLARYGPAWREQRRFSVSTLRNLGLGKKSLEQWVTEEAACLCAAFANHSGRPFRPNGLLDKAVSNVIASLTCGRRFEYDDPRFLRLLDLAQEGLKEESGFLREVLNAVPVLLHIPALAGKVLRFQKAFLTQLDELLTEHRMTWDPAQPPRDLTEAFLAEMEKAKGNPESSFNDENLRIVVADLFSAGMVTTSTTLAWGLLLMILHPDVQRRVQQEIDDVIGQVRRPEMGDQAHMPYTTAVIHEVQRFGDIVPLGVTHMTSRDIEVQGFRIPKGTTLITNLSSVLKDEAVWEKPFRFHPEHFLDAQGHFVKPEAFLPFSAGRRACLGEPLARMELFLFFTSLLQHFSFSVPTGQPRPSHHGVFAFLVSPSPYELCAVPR
T3 sequence (P33261 whole entry): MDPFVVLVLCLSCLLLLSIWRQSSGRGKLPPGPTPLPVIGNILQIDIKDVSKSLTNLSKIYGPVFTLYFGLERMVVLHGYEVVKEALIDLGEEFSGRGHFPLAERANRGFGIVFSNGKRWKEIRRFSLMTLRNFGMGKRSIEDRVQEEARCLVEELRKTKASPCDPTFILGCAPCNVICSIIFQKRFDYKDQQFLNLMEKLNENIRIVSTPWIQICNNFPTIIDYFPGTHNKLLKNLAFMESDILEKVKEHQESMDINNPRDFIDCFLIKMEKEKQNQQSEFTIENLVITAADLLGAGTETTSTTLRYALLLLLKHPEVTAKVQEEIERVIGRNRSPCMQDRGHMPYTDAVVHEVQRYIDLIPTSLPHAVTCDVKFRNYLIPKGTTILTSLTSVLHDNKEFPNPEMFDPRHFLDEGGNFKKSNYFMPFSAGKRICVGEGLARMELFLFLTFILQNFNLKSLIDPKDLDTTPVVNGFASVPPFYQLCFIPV

| Structure (SMILES) | IC50 (CYP3A4; [1]) [nM] | IC50 (CYP2C9; [2]) [nM] | IC50 (CYP2C19; [3]) [nM] | IC50 (CYP1A2; [4]) [nM] | IC50 (CYP2D6; [5]) [nM] | IC50 (CYP3A4; [6]) [nM] | IC50 (CYP2C9; [7]) [nM] | IC50 (CYP2C19; [8]) [nM] | IC50 (CYP1A2) [nM] | IC50 (CYP2D6; [9]) [nM] |
| --- | --- | --- | --- | --- | --- | --- | --- | --- | --- | --- |
| C[C@H](c1ccc(C#N)cc1)n1cncc1CN1CCN(c2ccccc2)C(C(=O)N2CCCCC2)C1 (single isomer, unassigned) [Compound 45a] | 12 | 7770 | 5500 | > 10000 | > 10000 | – | – | – | – | – |
| C[C@H](c1ccc(C#N)cc1)n1cncc1CN1CCN(c2ccccc2)C(C(=O)N2CCCCC2)C1 (single isomer, unassigned) [Compound 45b] | 20 | 4000 | 5180 | > 10000 | > 10000 | – | – | – | – | – |
| C[C@H](c1ccc(F)cc1)n1cncc1CN1CCN(C(=O)c2ccccc2)C(c2ccccc2)C1 (single isomer, unassigned) [Compound 50a] | 16 | 4360 | 4330 | > 10000 | 4000 | – | – | – | – | – |
| C[C@H](c1ccc(F)cc1)n1cncc1CN1CCN(C(=O)c2ccccc2)C(c2ccccc2)C1 (single isomer, unassigned) [Compound 50b] | 5 | 1280 | 4400 | > 10000 | > 10000 | – | – | – | – | – |
| C[C@H](c1ccc(F)cc1)n1cncc1CN1CCN(C(=O)C2CCOCC2)C(c2ccccc2)C1 (single isomer, unassigned) [Compound 52a] | 7 | > 10000 | 8490 | > 10000 | > 10000 | – | – | – | – | – |
| C[C@H](c1ccc(F)cc1)n1cncc1CN1CCN(C(=O)C2CCOCC2)C(c2ccccc2)C1 (single isomer, unassigned) [Compound 52b] | 27 | 6200 | 3670 | > 10000 | > 10000 | – | – | – | – | – |
| CCC1(C#N)CCN(Cc2cncn2[C@H](C)c2ccc(F)cc2)CC1 [Compound 1, (R)-4-Ethyl-1-((1-(1-(4-fluorophenyl)ethyl)-1H-imidazol-5-yl)methyl)piperidine-4-carbonitrile] | 20 | 7370 | 6220 | > 10000 | > 10000 | – | – | – | – | – |
| CC(C)C1(C#N)CCN(Cc2cncn2[C@H](C)c2ccc(F)cc2)CC1 [Compound 2, (R)-1-((1-(1-(4-fluorophenyl)ethyl)-1H-imidazol-5-yl)methyl)-4-isopropylpiperidine-4-carbonitrile] | 18 | > 10000 | > 10000 | > 10000 | > 10000 | – | – | – | – | – |
| C[C@H](c1ccc(F)cc1)n1cncc1CN1CCC(C)(C#N)CC1 [Compound 3, (R)-1-((1-(1-(4-fluorophenyl)ethyl)-1H-imidazol-5-yl)methyl)-4-methylpiperidine-4-carbonitrile] | 37 | > 10000 | > 10000 | > 10000 | 8710 | – | – | – | – | – |
| CC1(C#N)CCN(Cc2cncn2Cc2nc3ccccc3s2)CC1 [Compound 4, 1-((1-(benzo[d]thiazol-2-ylmethyl)-1H-imidazol-5-yl)methyl)-4-methylpiperidine-4-carbonitrile] | 58 | 3270 | 2680 | > 10000 | > 10000 | – | – | – | – | – |
| C[C@H](c1ccc(F)cc1)n1cncc1CN1CCC(C#N)(C2CCCC2)CC1 [Compound 5, (R)-4-cyclopentyl-1-((1-(1-(4-fluorophenyl)ethyl)-1H-imidazol-5-yl)methyl)piperidine-4-carbonitrile] | 15 | 3250 | 3740 | 5570 | 7330 | – | – | – | – | – |
| CCCC1(C#N)CCN(Cc2cncn2[C@H](C)c2ccc(F)cc2)CC1 [Compound 6, (R)-1-((1-(1-(4-fluorophenyl)ethyl)-1H-imidazol-5-yl)methyl)-4-propylpiperidine-4-carbonitrile] | 27 | 5670 | 7920 | > 10000 | 4960 | – | – | – | – | – |
| C[C@H](c1ccc(F)cc1)n1cncc1CN1CCC(C#N)(C2CCOCC2)CC1 [Compound 7, (R)-1-((1-(1-(4-fluorophenyl)ethyl)-1H-imidazol-5-yl)methyl)-4-(tetrahydro-2H-pyran-4-yl)piperidine-4-carbonitrile] | 21 | 8170 | > 10000 | > 10000 | 8480 | – | – | – | – | – |
| CC(C)CC1(C#N)CCN(Cc2cncn2[C@H](C)c2ccc(F)cc2)CC1 [Compound 8, (R)-1-((1-(1-(4-fluorophenyl)ethyl)-1H-imidazol-5-yl)methyl)-4-isobutylpiperidine-4-carbonitrile] | 22 | 2530 | 3250 | 9180 | 2490 | – | – | – | – | – |
| CCc1noc(C2(C)CCN(Cc3cncn3[C@H](C)c3ccc(F)cc3)CC2)n1 [Compound 9, (R)-3-ethyl-5-(1-((1-(1-(4-fluorophenyl)ethyl)-1H-imidazol-5-yl)methyl)-4-methylpiperidin-4-yl)-1,2,4-oxadiazole] | 21 | 2510 | 2270 | > 10000 | 2520 | – | – | – | – | – |
| Cc1noc(C2(C)CCN(Cc3cncn3[C@H](C)c3ccc(F)cc3)CC2)n1 [Compound 10, (R)-5-(1-((1-(1-(4-fluorophenyl)ethyl)-1H-imidazol-5-yl)methyl)-4-methylpiperidin-4-yl)-3-methyl-1,2,4-oxadiazole] | 17 | 2330 | 7020 | > 10000 | 2100 | – | – | – | – | – |
| CC(C)c1noc(C2(C)CCN(Cc3cncn3[C@H](C)c3ccc(F)cc3)CC2)n1 [Compound 11, (R)-5-(1-((1-(1-(4-fluorophenyl)ethyl)-1H-imidazol-5-yl)methyl)-4-methylpiperidin-4-yl)-3-isopropyl-1,2,4-oxadiazole] | 21 | 2880 | 3310 | 5070 | 5990 | – | – | – | – | – |
| N#Cc1ccc(C2(n3cncc3CN3CCC(C#N)(c4ccc(F)cc4)CC3)CC2)cc1 [Compound 12, 1-((1-(1-(4-cyanophenyl)cyclopropyl)-1H-imidazol-5-yl)methyl)-4-(4-fluorophenyl)piperidine-4-carbonitrile] | – | – | – | – | – | 50 | 5320 | 3980 | 1470 | 6360 |
| C[C@H](c1ccc(F)cc1)n1cncc1CN1CCC(C#N)(c2ccccn2)CC1 [Compound 13, (R)-1-((1-(1-(4-fluorophenyl)ethyl)-1H-imidazol-5-yl)methyl)-4-(pyridin-2-yl)piperidine-4-carbonitrile] | 10 | 4670 | 6400 | > 10000 | > 10000 | – | – | – | – | – |
| C[C@H](c1ccc(F)cc1)n1cncc1CN1CCC(C#N)(c2ccccc2)CC1 [Compound 14, (R)-1-((1-(1-(4-fluorophenyl)ethyl)-1H-imidazol-5-yl)methyl)-4-phenylpiperidine-4-carbonitrile] | – | – | – | – | – | 17 | 2200 | 2600 | 5520 | 3700 |
| COC(=O)C1(c2ccccc2)CCN(Cc2cncn2[C@H](C)c2ccc(F)cc2)CC1 [Compound 15, (R)-methyl 1-((1-(1-(4-fluorophenyl)ethyl)-1H-imidazol-5-yl)methyl)-4-phenylpiperidine-4-carboxylate] | – | – | – | – | – | 16 | 1390 | 1250 | 2420 | 2080 |
